SMILES strings stand for the structures. Where only a bound is given, the exact number is not on record here.

The test system of data set [1] is differentiated SH-SY5Y cells. Kind of data set: Toxicity screening on differentiated SH-SY5Y cells. The data set is classed as cell-based, human. Conditions: MTT, mean ± SD (n = 5).
For data set [2], the target named is Aβ1–42 (Homo sapiens, UniProt P05067). The data set can be described thus: biochemical. The following applies: Aβ aggregation (IC50), Aβ1-42, ThT, 37 °C 48 h, compounds 0–200 μM.
In data set [3] the target is BuChE (Homo sapiens, UniProt P06276). Kind of data set: biochemical.
Sequence of BuChE (P06276 29-602): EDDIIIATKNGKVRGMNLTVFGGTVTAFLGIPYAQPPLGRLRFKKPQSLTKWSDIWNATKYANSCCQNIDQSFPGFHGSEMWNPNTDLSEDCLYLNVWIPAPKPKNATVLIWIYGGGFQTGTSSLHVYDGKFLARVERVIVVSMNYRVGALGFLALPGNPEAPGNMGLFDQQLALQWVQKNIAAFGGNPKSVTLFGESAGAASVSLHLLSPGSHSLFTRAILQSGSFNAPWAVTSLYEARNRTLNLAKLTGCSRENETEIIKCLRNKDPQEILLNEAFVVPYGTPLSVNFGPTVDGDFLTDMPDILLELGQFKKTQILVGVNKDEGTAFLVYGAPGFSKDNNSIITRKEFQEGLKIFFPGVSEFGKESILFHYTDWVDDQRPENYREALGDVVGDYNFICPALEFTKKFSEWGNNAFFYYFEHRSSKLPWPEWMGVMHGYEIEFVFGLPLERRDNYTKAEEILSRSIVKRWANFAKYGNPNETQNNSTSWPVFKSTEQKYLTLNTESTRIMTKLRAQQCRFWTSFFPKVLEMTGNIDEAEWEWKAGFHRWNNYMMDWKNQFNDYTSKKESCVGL

Sequence of Aβ1–42 (P05067 672-713): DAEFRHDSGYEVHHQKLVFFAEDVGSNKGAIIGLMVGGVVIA

Usually IC50 stands for the concentration needed to halve the response being measured. Low readings indicate higher potency, high ones lower potency. Turning to `COc1c2ccoc2cc2oc(-c3ccccc3)cc(=O)c12` [CY2, pinnatin], the Cell viability in data set [1] (0.1 μM) came out at 96.7 ± 3.1 % control; in data set [1] (1 μM), 99.3 ± 4.7 % control; in data set [1] (10 μM), 96.1 ± 4.3 % control; in data set [1] (100 μM), 68.5 ± 2.2 % control. In addition, the IC50 in data set [2] was 195 ± 3.2 µM; in data set [3], 82 ± 1.3 µM.

Turning to `COc1c(C(=O)/C=C(\O)c2ccccc2)ccc2occc12` [CY3, pongamol], the Cell viability worked out at 103.3 ± 1.4 % control in data set [1] (0.1 μM), 103.6 ± 1.1 % control in data set [1] (1 μM), 104.3 ± 3.8 % control in data set [1] (10 μM) and 103.1 ± 4.0 % control in data set [1] (100 μM). The half-maximal inhibitory concentration (IC50) in data set [2] was greater than 200 µM; in data set [3], 102 ± 1.27 µM.

For `COc1cc(/C=C/C(=O)CC(=O)/C=C/c2ccc(O)c(OC)c2)ccc1O` [Curcumin, reference compound], the Cell viability in data set [1] (0.1 μM) came to 104.1 ± 3.2 % control; in data set [1] (1 μM), 100.4 ± 4.6 % control; in data set [1] (10 μM), 100.5 ± 7.7 % control; in data set [1] (100 μM) it was 79.1 ± 3.6 % control.

`O=c1cc(-c2ccccc2)oc2c1ccc1occc12` [CY14, lanceolatin B]: the Cell viability turned out to be 102.4 ± 1.3 % control in data set [1] (0.1 μM), 100.1 ± 2.6 % control in data set [1] (1 μM), 97.4 ± 3.2 % control in data set [1] (10 μM) and 72.4 ± 3.4 % control in data set [1] (100 μM). In data set [2], this compound showed a half-maximal inhibitory concentration (IC50) of 106 µM.

The record behind these values is article PMC10722324 (Heliyon, 2023).
